Results on 26 molecules are retold here after patent US7109243B2 (IRM LLC, priority 2003, dated 2006).

In assay [1] the target is Cathepsin S (Homo sapiens, UniProt P25774). Nature of the assay: Cathepsin S inhibition assay (fluorogenic peptide substrate). It counts as biochemical. The following applies: Table II, compounds of Formula I; read-out: Ki Cat. S. In a few lines:
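Ki values come from nonlinear fitting of inhibited hydrolysis rates, taking free and total inhibitor concentrations as equal. Rates measured as rising fluorescence at 380/450 nm after reaction start with 50 μM final acetyl-HPVK-aminocarbamoylcoumarin.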

The target of assay [2] is T1, Cathepsin K (Homo sapiens, UniProt P43235).
T1 sequence (P43235 115-329): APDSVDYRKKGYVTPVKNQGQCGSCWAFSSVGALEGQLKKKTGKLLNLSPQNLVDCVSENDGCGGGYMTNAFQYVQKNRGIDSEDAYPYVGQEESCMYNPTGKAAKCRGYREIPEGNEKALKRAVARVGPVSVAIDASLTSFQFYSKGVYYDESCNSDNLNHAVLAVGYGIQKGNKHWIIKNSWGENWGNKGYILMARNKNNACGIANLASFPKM
Nature of the assay: Cathepsin K inhibition assay (fluorogenic peptide substrate); selectivity ratio vs cathepsin S. It counts as biochemical. The following applies: ratio of cathepsin K inhibition constant to cathepsin S inhibition constant; Table II. The procedure, abridged:
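Fluorogenic kinetic assay, started with acetyl-Lys-His-Pro-Lys-aminocarbamoylcoumarin at 40 μM final, hydrolysis followed at ex 380/em 450 nm. Apparent inhibition constants from progress curves, converted to competitive inhibition constants. Selectivity expressed as isozyme inhibition constant divided by cathepsin S inhibition constant.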

Sequence of Cathepsin S (P25774 115-331, species assumed): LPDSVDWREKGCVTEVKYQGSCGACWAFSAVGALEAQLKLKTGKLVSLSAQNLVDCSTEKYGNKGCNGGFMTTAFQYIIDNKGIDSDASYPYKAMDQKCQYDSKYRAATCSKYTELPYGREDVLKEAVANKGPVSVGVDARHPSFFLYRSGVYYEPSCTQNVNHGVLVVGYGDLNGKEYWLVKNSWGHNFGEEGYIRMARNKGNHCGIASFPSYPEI

`COc1ccc(NCCNC(=O)C(NC(=O)c2cccc(C)c2)c2ccccc2Cl)cc1` (stereo not shown) [Compound 216, N-{(2-Chloro-phenyl)-[2-(4-methoxy-phenylamino)-ethylcarbamoyl]-methyl}-3-methyl-benzamide]: the Ki in assay [1] was less than 1 µM. Also, the “Selectivity for Cat. S over Cat. K” value in assay [2] was “+++ (+++, >1000)”.

For `COc1ccc(NCCNC(=O)C(NC(=O)c2cccc(C)c2)c2ccc(OCc3ccccc3)cc2)cc1` (stereo not shown) [Compound 217, N-{(4-Benzyloxy-phenyl)-[2-(4-methoxy-phenylamino)-ethylcarbamoyl]-methyl}-3-methyl-benzamide], the Ki in assay [1] was less than 1 µM. Besides, in assay [2], the “Selectivity for Cat. S over Cat. K” value was “+++ (+++, >1000)”.

In the case of `COc1ccc(NCCNC(=O)C(NC(=O)c2cccc(C)c2)c2cccc3ccccc23)cc1` (stereo not shown) [Compound 218, N-{[2-(4-Methoxy-phenylamino)-ethylcarbamoyl]-naphthalen-1-yl-methyl}-3-methyl-benzamide], the inhibitory constant (Ki) in assay [1] was less than 1 µM. Besides, the “Selectivity for Cat. S over Cat. K” value in assay [2] was “+++ (+++, >1000)”.

Turning to `O=C(N[C@@H](CC1CCCCC1)C(=O)NCCNc1ccc(OC(F)(F)F)cc1)c1ccc(-c2ccccc2C(F)(F)F)o1` [Compound 219, (S)-5-(2-Trifluoromethyl-phenyl)-furan-2-carboxylic acid {2-cyclohexyl-1-[2-(4-trifluoromethoxy-phenylamino)-ethylcarbamoyl]-ethyl}-amide], the inhibitory constant (Ki) in assay [1] is less than 0.1 µM. For the same molecule, in assay [2], the “Selectivity for Cat. S over Cat. K” value was “++ (++, >100)”.

`COc1ccc(NCCNC(=O)C(NC(=O)c2cccc(C)c2)c2ccccc2C)cc1` (stereo not shown) [Compound 220, N-{[2-(4-Methoxy-phenylamino)-ethylcarbamoyl]-o-tolyl-methyl}-3-methyl-benzamide]: in assay [1], the Ki is less than 1 µM. The “Selectivity for Cat. S over Cat. K” value in assay [2] is “++ (++, >100)”.

For the molecule `O=C(N[C@@H](CC1CCCCC1)C(=O)NCCNc1ccc(OC(F)(F)F)cc1)c1ccc(-n2cncn2)cc1` [Compound 221, (S)-N-{2-Cyclohexyl-1-[2-(4-trifluoromethoxy-phenylamino)-ethylcarbamoyl]-ethyl}-4-[1,2,4]triazol-1-yl-benzamide], in assay [1], the Ki was less than 0.1 µM. In addition, the “Selectivity for Cat. S over Cat. K” value in assay [2] is “+ (+, >10)”.

Regarding `COc1ccc(NCCNC(=O)C(NC(=O)c2cccc(C)c2)c2ccc(Cl)cc2Cl)cc1` (stereo not shown) [Compound 222, N-{(2,4-Dichloro-phenyl)-[2-(4-methoxy-phenylamino)-ethylcarbamoyl]-methyl}-3-methyl-benzamide], in assay [1], the Ki is less than 0.1 µM. Further, the “Selectivity for Cat. S over Cat. K” value in assay [2] is “+++ (+++, >1000)”.

Regarding `COc1ccc(NCCNC(=O)C(NC(=O)c2cccc(C)c2)c2cccc(Cl)c2Cl)cc1` (stereo not shown) [Compound 223, N-{(2,3-Dichloro-phenyl)-[2-(4-methoxy-phenylamino)-ethylcarbamoyl]-methyl}-3-methyl-benzamide], the Ki in assay [1] is less than 1 µM. For the same molecule, the “Selectivity for Cat. S over Cat. K” value in assay [2] is “++ (++, >100)”.

On to `COc1ccc(NCCNC(=O)C(NC(=O)c2cccc(C)c2)c2ccc(C)cc2C)cc1` (stereo not shown) [Compound 224, N-{(2,4-Dimethyl-phenyl)-[2-(4-methoxy-phenylamino)-ethylcarbamoyl]-methyl}-3-methyl-benzamide], for which the Ki in assay [1] is less than 1 µM. Besides, the “Selectivity for Cat. S over Cat. K” value in assay [2] is listed as “++ (++, >100)”.

Turning to `COc1ccc(NCCNC(=O)C(NC(=O)c2cccc(C)c2)c2ccc(OC)cc2OC)cc1` (stereo not shown) [Compound 225, N-{(2,4-Dimethoxy-phenyl)-[2-(4-methoxy-phenylamino)-ethylcarbamoyl]-methyl}-3-methyl-benzamide], the Ki in assay [1] was less than 10 µM. Moreover, the “Selectivity for Cat. S over Cat. K” value in assay [2] is “+ (+, >10)”.

With `COc1ccc(NCCNC(=O)C(NC(=O)c2cccc(C)c2)c2cccs2)cc1` (stereo not shown) [Compound 226, N-{[2-(4-Methoxy-phenylamino)-ethylcarbamoyl]-thiophen-2-yl-methyl}-3-methyl-benzamide], in assay [1], the Ki was less than 10 µM. Moreover, in assay [2], the “Selectivity for Cat. S over Cat. K” value was “+ (+, >10)”.

As for `COc1ccc(NCCNC(=O)C(NC(=O)c2cccc(C)c2)c2ccc(F)cc2)cc1` (stereo not shown) [Compound 227, N-{(4-Fluoro-phenyl)-[2-(4-methoxy-phenylamino)-ethylcarbamoyl]-methyl}-3-methyl-benzamide], the Ki in assay [1] was less than 1 µM. Moreover, the “Selectivity for Cat. S over Cat. K” value in assay [2] is “++ (++, >100)”.

Take `COc1ccc(NCCNC(=O)[C@H](Cc2ccc(O)cc2)NC(=O)c2cccc(C)c2)cc1` [Compound 228, (S)-N-{2-(4-Hydroxy-phenyl)-1-[2-(4-methoxy-phenylamino)-ethylcarbamoyl]-ethyl}-3-methyl-benzamide]: the inhibition constant (Ki) in assay [1] is less than 0.1 µM. Further, the “Selectivity for Cat. S over Cat. K” value in assay [2] is given as “+++ (+++, >1000)”.

On to `COc1ccc(NCCNC(=O)[C@H](Cc2ccc(Cl)cc2Cl)NC(=O)c2cccc(C)c2)cc1` [Compound 229, (S)-N-{2-(2,4-Dichloro-phenyl)-1-[2-(4-methoxy-phenylamino)-ethylcarbamoyl]-ethyl}-3-methyl-benzamide], for which, in assay [1], the Ki was less than 0.1 µM. For the same molecule, the “Selectivity for Cat. S over Cat. K” value in assay [2] is given as “+++ (+++, >1000)”.

For the molecule `COc1ccc(NCCNC(=O)[C@H](Cc2cc(F)cc(F)c2)NC(=O)c2cccc(C)c2)cc1` [Compound 230, (S)-N-{2-(3,5-Difluoro-phenyl)-1-[2-(4-methoxy-phenylamino)-ethylcarbamoyl]-ethyl}-3-methyl-benzamide], the Ki in assay [1] was less than 0.1 µM. The “Selectivity for Cat. S over Cat. K” value in assay [2] was “+++ (+++, >1000)”.

Take `COc1ccc(NCCNC(=O)[C@H](Cc2ccc(Cl)c(Cl)c2)NC(=O)c2cccc(C)c2)cc1` [Compound 231, (S)-N-{2-(3,4-Dichloro-phenyl)-1-[2-(4-methoxy-phenylamino)-ethylcarbamoyl]-ethyl}-3-methyl-benzamide]: in assay [1], the inhibition constant (Ki) was less than 0.1 µM. In assay [2], the “Selectivity for Cat. S over Cat. K” value is given as “+++ (+++, >1000)”.

For the molecule `O=C(N[C@@H](CC1CCCCC1)C(=O)NCCNc1ccc(OC(F)(F)F)cc1)c1ccc(OCc2ccccc2)cc1` [Compound 232, (S)-4-Benzyloxy-N-{2-cyclohexyl-1-[2-(4-trifluoromethoxy-phenylamino)-ethylcarbamoyl]-ethyl}-benzamide], in assay [1], the Ki is less than 0.1 µM. In addition, the “Selectivity for Cat. S over Cat. K” value in assay [2] is given as “+ (+, >10)”.

With `O=C(N[C@@H](CC1CCCCC1)C(=O)NCCNc1ccc(OC(F)(F)F)cc1)c1ccc(-c2ccccc2)cc1` [Compound 234, (S)-Biphenyl-4-carboxylic acid {2-cyclohexyl-1-[2-(4-trifluoromethoxy-phenylamino)-ethylcarbamoyl]-ethyl}-amide], the Ki in assay [1] is less than 0.1 µM. For the same molecule, the “Selectivity for Cat. S over Cat. K” value in assay [2] is “+ (+, >10)”.

Consider `COc1ccc(NCCNC(=O)[C@H](Cc2cccc(F)c2)NC(=O)c2cccc(C)c2)cc1` [Compound 236, (S)-N-{2-(3-Fluoro-phenyl)-1-[2-(4-methoxy-phenylamino)-ethylcarbamoyl]-ethyl}-3-methyl-benzamide], for which the Ki in assay [1] was less than 0.1 µM. For the same molecule, the “Selectivity for Cat. S over Cat. K” value in assay [2] is “+++ (+++, >1000)”.

On to `COc1ccc(NCCNC(=O)[C@H](Cc2ccc(F)c(F)c2)NC(=O)c2cccc(C)c2)cc1` [Compound 237, (S)-N-{2-(3,4-Difluoro-phenyl)-1-[2-(4-methoxy-phenylamino)-ethylcarbamoyl]-ethyl}-3-methyl-benzamide], for which the Ki in assay [1] is less than 0.1 µM. For the same molecule, the “Selectivity for Cat. S over Cat. K” value in assay [2] was “+++ (+++, >1000)”.

Turning to `COc1ccc(NCCNC(=O)[C@H](Cc2cccc(C)c2)NC(=O)c2cccc(C)c2)cc1` [Compound 238, (S)-N-{1-[2-(4-Methoxy-phenylamino)-ethylcarbamoyl]-2-m-tolyl-ethyl}-3-methyl-benzamide], the Ki in assay [1] was less than 0.1 µM. Besides, the “Selectivity for Cat. S over Cat. K” value in assay [2] is listed as “+ (+, >10)”.

Take `COc1ccc(NCCNC(=O)[C@H](Cc2ccccc2C(F)(F)F)NC(=O)c2cccc(C)c2)cc1` [Compound 239, (S)-N-[1-[2-(4-Methoxy-phenylamino)-ethylcarbamoyl]-2-(2-trifluoromethyl-phenyl)-ethyl]-3-methyl-benzamide]: the Ki in assay [1] was less than 0.1 µM. In addition, the “Selectivity for Cat. S over Cat. K” value in assay [2] is reported as “+++ (+++, >1000)”.

`COc1ccc(NCCNC(=O)[C@H](Cc2ccc(C#N)cc2)NC(=O)c2cccc(C)c2)cc1` [Compound 240, (S)-N-{2-(4-Cyano-phenyl)-1-[2-(4-methoxy-phenylamino)-ethylcarbamoyl]-ethyl}-3-methyl-benzamide]: the Ki in assay [1] is less than 0.1 µM. For the same molecule, the “Selectivity for Cat. S over Cat. K” value in assay [2] is “+++ (+++, >1000)”.

For `COc1ccc(NCCNC(=O)[C@H](Cc2ccc(Br)cc2)NC(=O)c2cccc(C)c2)cc1` [Compound 241, (S)-N-{2-(4-Bromo-phenyl)-1-[2-(4-methoxy-phenylamino)-ethylcarbamoyl]-ethyl}-3-methyl-benzamide], in assay [1], the Ki was less than 0.1 µM. In assay [2], the “Selectivity for Cat. S over Cat. K” value is listed as “+++ (+++, >1000)”.

Turning to `COc1ccc(NCCNC(=O)[C@H](Cc2ccc(I)cc2)NC(=O)c2cccc(C)c2)cc1` [Compound 242, (S)-N-{2-(4-Iodo-phenyl)-1-[2-(4-methoxy-phenylamino)-ethylcarbamoyl]-ethyl}-3-methyl-benzamide], in assay [1], the Ki was less than 0.1 µM. For the same molecule, in assay [2], the “Selectivity for Cat. S over Cat. K” value is “+++ (+++, >1000)”.

With `COc1ccc(NCCNC(=O)[C@H](Cc2ccc([N+](=O)[O-])cc2)NC(=O)c2cccc(C)c2)cc1` [Compound 244, (S)-N-[1-[2-(4-Methoxy-phenylamino)-ethylcarbamoyl]-2-(4-nitro-phenyl)-ethyl]-3-methyl-benzamide], in assay [1], the Ki was less than 1 µM. The “Selectivity for Cat. S over Cat. K” value in assay [2] is on record as “+++ (+++, >1000)”.
